These results are taken from US5089520A, “Method of inhibiting virus” (priority 1990, dated 1992).

SMILES strings stand for the structures. Read-outs that look alike come from different tables or passages of the source.

Series [1] has as its system HIV. The experiment in a line: In vitro HIV replication / cytopathic effect assay, HIV-infected T-cells scored 0 to 4+ (Example 13, Table I). On the set-up: key to T-cells HIV-infected (score): 0: complete CPE; ±: most cells dead; 1+: about 1/4 of cells alive; 2+: about 1/2 of cells alive; 3+: about 3/4 of cells alive; 4+: all cells appear alive. It is filed as cell-based. The following applies: for HIV inhibition score (inactive, scored as zero): above test protocol (Example 13), concentration not given. How it is done:
(§1) After a suitable period of incubation, the cultures are scored for the presence of so-called syncytial cells (giant cells). Typical examples of such a test for the evaluation of inhibitors of HIV have been disclosed by Fung et al., Bio/Technology 5, 940-946 (1987); Tyms et al., Lancet, Oct. 31, 1987, pp. 1025-1026; Gruters et al., Nature 330, 74-77 (1987); and Walker et al., Proc Natl. Acad. Sci. USA 84, 8120-8124 (1987).
(§2) In the present case, a human leukemic T-cell line was used which is described by Karpas, Leuk. Res. 1, 35-49 (1977). These cells were seeded into microtiter wells at a concentration of 5×10^3 cells per 0.2 ml of culture medium in each well. RPMI-1640 supplemented with 10% fetal calf serum was used as the culture medium. Each of the test compounds was added to either 4 or 6 wells of the microtiter plate. Two or three of the wells were infected with about 10^3 HIV-1 particles per well and two or three other wells were similarly infected with HV-2 particles. During the following 3 weeks, with a twice weekly change of medium containing the corresponding test compounds, the infected cells were monitored for the appearance of syncytial formations (giant cells) and eventual cytopathic effect (CPE). The non-infected cells were monitored for the possible cytotoxic effect of the test compounds. Likewise, the rate of growth was estimated in relation to growth of the control cells. The cultures were scored on a scale from 0 to 4+ by microscopic examination on the following basis:
(§3) 1+=about 1/4 of cells alive
(§4) 2+=about 1/2 of cells alive
(§5) 3+=about 3/4 of cells alive
(§6) 4+=all cells appear alive

Series [2] can be described thus: in vitro. It is filed as cell-based, human. On the set-up: key to T-cells Control (score): 0: complete CPE; ±: most cells dead; 1+: about 1/4 of cells alive; 2+: about 1/2 of cells alive; 3+: about 3/4 of cells alive; 4+: all cells appear alive. The conditions noted are these: human, leukemic t-cell line; same test protocol as Table I; read-out: toxic at (concentration). The protocol:
as §1, §2, §3, §4, §5, §6

Series [3] relates to HIV. The conditions noted are these: literature, cited from earlier work; for inhibition of HIV / cytopathic effect (in words): in vitro.
Series [4] relates to human leukemic T-cell line. The experiment in a line: in vitro. It is filed as cell-based. Set-up: key to T-cells Control (score): 0: complete CPE; ±: most cells dead; 1+: about 1/4 of cells alive; 2+: about 1/2 of cells alive; 3+: about 3/4 of cells alive; 4+: all cells appear alive. The following applies: control cells, 3 weeks. The protocol: as §1, §2, §3, §4, §5, §6
The subject of series [5] is HIV. The series is described as follows: Anti-HIV activity, CPE reduction in HIV infected T-lymphocytes (Example 14, Table II). It is filed as cell-based. The following applies: Human immunodeficiency virus 1, T-lymphocyte; for activity at 100 µg/mL: dosage 0.1 mg/ml; for activity at 130 µg/mL: dosage 0.13 mg/ml. The protocol:
(§7) Further testing of compounds 1 to 12 for inhibition of HIV replication was carried out to confirm the results of Example 13. To discriminate between specific anti-HIV activity and cytotoxicity, the effects of these compounds on HIV infected and non-infected T-lymphocytes were assessed in parallel. Using the T-cell line and cell free suspensions of HIV prepared from infected cultures, as in Example 13, the concentration of infectious particles (TCID, tissue culture infectious dose) was estimated using an end-point titration where the number of infectious HIV particles in each preparation was determined by the highest dilution which contained infectious HIV, as detected by syncytial formation, cytotoxicity and HIV antigen synthesis after 10 days of culture with 10^4 T-45 cells. Stock solutions of all compounds were prepared by dissolving each compound at a concentration of 1 mg/ml in growth medium. These solutions were filtered and sterilised (0.22 μm). Initially, each compound was tested at concentrations of 0.1 mg/ml and 0.5 mg/ml.
(§8) The following Table II sets forth the cytotoxic activity (% cell death) and the anti-HIV activity (% cytopathic effect, CPE, reduction), for these compounds.

Series [6] can be described thus: Cytotoxic activity in non-infected T-lymphocytes (Example 14, Table II). The following applies: human, read-out: Cytotoxic Activity (% cell death). It is filed as cell-based. How it is done: as §7, §8
Series [7] relates to α-glucosidase I. The conditions noted are these: literature; cited from earlier work.
Series [8] deals with HIV virons. The conditions noted are these: literature; cited from earlier work.
In series [9] the test system is mannosidase I. The conditions noted are these: literature; cited from earlier work.
Series [10] relates to glycosidase. The conditions noted are these: literature; cited from earlier work.
For series [11], the system named is α-glycosidase. The following applies: literature; cited from earlier work.
Setting [12] is: compound concentration 0.1 mg/ml.
The mark [13] stands for this setting: compound concentration 0.3 mg/ml.
[14] abbreviates: compound concentration 0.13 mg/ml.

Take `OC[C@@H]1[C@@H](O)[C@@H](O)CN1Cc1ccccc1` [1,4-dideoxy-1,4-benzylimino-D-ribitol, 1,4-Dideoxy-1,4-benzylimino-D-ribitol]: the “HIV inhibition score (inactive, scored as zero)” value in series [1] is “zero”.

For the compound `C[C@@H]1NC[C@@H](O)[C@H](O)[C@@H]1O` [1,5-dideoxy-1,5-imino-L-fucitol, 1,5-Dideoxy-1,5-imino-L-fucitol], the “HIV inhibition score (inactive, scored as zero)” value in [1] is “zero”.

In the case of `Cc1cn([C@H]2C[C@H](N=[N+]=[N-])[C@@H](CO)O2)c(=O)[nH]c1=O` [AZT, 3'-azido-3'-deoxythymidine, reference compound], the MCC in [2] turned out to be 0.01 µg/mL. Moreover, the “inhibition of HIV / cytopathic effect (in words)” value in series [3] is on record as “shown to inhibit replication of the virus in vitro”.

On to `CN1[C@H](CO)[C@@H](O)[C@H](O)[C@H]1CO` [Compound 1, N-Methyl derivative of dihydroxymethyldihydroxypyrrolidine], for which the “T-cells Control (score)” value in [4] (setting [12]) was 4+. Besides, the activity at 100 µg/mL in series [5] was 25%. Besides, the cytotoxicity in series [6] (dosage 0.1 mg/ml) came out at 0%.

For `OC[C@@H]1NC[C@H](O)[C@H]1O` [Compound 2, 1,4-Dideoxy-1,4-imino-L-arabinitol], the “T-cells HIV-infected (score)” value in series [1] (compound concentration 0.3 mg/ml, 3 weeks, HIV-1 and HIV-2) was 4+. For the same compound, the “T-cells Control (score)” value in [4] (setting [13]) is reported as 4+. The activity at 100 µg/mL in series [5] worked out at 50%. In series [5] (dosage 0.5 mg/ml), this compound came in with an activity at 500 µg/mL of 100%. Also, in series [6] (dosage 0.1 mg/ml), the cytotoxicity was determined as 0%. The “inhibition of HIV / cytopathic effect (in words)” value in [3] was “strong HIV inhibitory activity”.

Consider `OC[C@@H]1NC[C@@H](O)[C@H]1O` [Compound 3, 1,4-Dideoxy-1,4-imino-L-ribitol], for which, in [4] (setting [14]), the “T-cells Control (score)” value is listed as 4+. This compound registered an activity at 130 µg/mL in series [5] of 25%. Moreover, the cytotoxicity in series [6] (dosage 0.13 mg/ml) amounted to 0%.

For the compound `OC[C@H]1NC[C@H](O)[C@@H]1O` [Compound 4, 1,4-Dideoxy-1,4-imino-D-ribitol], the “T-cells Control (score)” value in [4] (setting [14]) is on record as 4+. Further, the activity at 130 µg/mL in series [5] was 50%. Moreover, the cytotoxicity in series [6] (dosage 0.13 mg/ml) came out at 0%.

Consider `CN1C[C@H](O)[C@@H](O)[C@@H]1CO` [Compound 5], for which the “T-cells Control (score)” value in series [4] (setting [12]) is given as 4+. The compound also yielded an activity at 100 µg/mL in [5] of 25%. In [6] (dosage 0.1 mg/ml), the cytotoxicity amounted to 0%.

`CN1C[C@H](O)[C@H](O)[C@H]1CO` [Compound 6]: in series [4] (setting [12]), the “T-cells Control (score)” value was 4+. Besides, the activity at 100 µg/mL in [5] is 25%. For the same compound, in series [6] (dosage 0.1 mg/ml), the cytotoxicity worked out at 0%.

Take `OC[C@H]1[C@H](O)[C@H](O)CN1Cc1ccccc1` [Compound 7, 1,4-dideoxy-1,4-benzylimino-L-ribitol]: the “T-cells Control (score)” value in [4] (setting [12]) is 4+. In series [5], this compound displayed an activity at 100 µg/mL of 25%. Further, in [6] (dosage 0.1 mg/ml), the cytotoxicity was 0%.

In the case of `OC[C@@H](O)[C@@H]1NC[C@@H](O)[C@H]1O` [Compound 8, 1,4-Dideoxy-1,4-imino-D-talitol], the “T-cells Control (score)” value in series [4] (compound concentration 0.16 mg/ml) is 4+. The activity at 160 µg/mL in [5] (dosage 0.16 mg/ml) stood at 25%. Moreover, the cytotoxicity in series [6] (dosage 0.16 mg/ml) is 0%.

Turning to `CN1C[C@@H](O)[C@@H](O)[C@H](O)[C@H]1CO` [Compound 9, N-Methyl derivative of deoxymannojirimycin], the “T-cells Control (score)” value in series [4] (setting [13]) is 4+. In series [5] (dosage 0.3 mg/ml), this compound gave an activity at 300 µg/mL of 25%. Also, in series [6] (dosage 0.3 mg/ml), the cytotoxicity was found to be 0%.

In the case of `C[C@@H]1NC(=O)[C@@H](O)[C@H](O)[C@@H]1O` [Compound 10, 1,5-dideoxy-1,5-imino-L-fuconolactam], in series [4] (setting [12]), the “T-cells Control (score)” value is given as 4+. This compound had an activity at 100 µg/mL in series [5] of 50%. In addition, the cytotoxicity in [6] (dosage 0.1 mg/ml) is 25%.

For `C[C@H]1[C@@H](O)[C@@H](O)[C@H](O)CN1C` [Compound 11, 1,5-Dideoxy-1,5-imino-[N-methyl]-L-fucitol], the “T-cells Control (score)” value in series [4] (setting [12]) was 4+. Further, the activity at 100 µg/mL in series [5] amounted to 25%. For the same compound, in series [6] (dosage 0.1 mg/ml), the cytotoxicity turned out to be 0%.

Turning to `COC(=O)CCCCCN1C[C@@H](O)[C@H](O)[C@H](O)[C@@H]1C` [Compound 12, 1,5-Dideoxy-1,5-imino-[N-ω-methyl caproate]-L-fucitol], the “T-cells Control (score)” value in series [4] (compound concentration 0.03 mg/ml) is 4+. This compound came in with an activity at 100 µg/mL in series [5] of 75%. In series [5] (dosage 0.25 mg/ml), the activity at 250 µg/mL came out at 90%. Also, in series [6] (dosage 0.1 mg/ml), the cytotoxicity turned out to be 0%.

Turning to `OC[C@H]1NC[C@@H](O)[C@@H]1O` [D-enantiomer], the “inhibition of HIV / cytopathic effect (in words)” value in series [3] is on record as “very little effect on HIV replication”.

For `O[C@@H]1[C@@H](O)[C@@H](O)CN2CC[C@H](O)[C@@H]12` [L-1,6-diepicastanospermine], in [3], the “inhibition of HIV / cytopathic effect (in words)” value is reported as “neither the epimer L-1,6-diepicastanospermine nor the stereoisomer of castanospermine, L-6-epicastanospermine, were found to be inhibitory”.

`O[C@@H]1[C@@H](O)[C@@H](O)CN2CC[C@@H](O)[C@@H]12` [L-6-epicastanospermine]: in series [3], the “inhibition of HIV / cytopathic effect (in words)” value was “neither the epimer L-1,6-diepicastanospermine nor the stereoisomer of castanospermine, L-6-epicastanospermine, were found to be inhibitory”.

For the compound `OC[C@@H]1[C@@H](O)[C@H](O)[C@@H](O)CN1Cc1ccccc1` [N-benzyl derivative], in [3], the “inhibition of HIV / cytopathic effect (in words)” value is recorded as “Neither the azofuranose analog of glucose nor the N-benzyl derivative were found to have an effect on CPE”.

As to `CN1C[C@H](O)[C@@H](O)[C@H](O)[C@H]1CO` [N-methyl derivative of deoxynojirimycin], in series [3], the “inhibition of HIV / cytopathic effect (in words)” value is reported as “having activity against HIV”. Moreover, the “glucosidase I inhibitory activity (in words)” value in series [7] is reported as “gluosidase I inhibitory activity”.

For `O[C@H]1[C@H](O)[C@@H](O)CN2CC[C@H](O)[C@H]12` [castanospermine], in [3], the “inhibition of HIV / cytopathic effect (in words)” value is “inhibition of the cytopathic effect (CPE)” and the “effect on HIV / virion infectivity (in words)” value is “only a modest reduction in virion infectivity”. The “glucosidase I inhibitory activity (in words)” value in series [7] is listed as “α-glucosidase I inhibitor”. For the same compound, the “effect on glycosylation of HIV virons and entry into target cells (in words)” value in series [8] is “interfere with normal glycosylation of HIV virons, thereby altering the envelope glycoprotein and preventing entry of HIV into target cells”.

For `OC[C@H]1NC[C@@H](O)[C@@H](O)[C@@H]1O` [deoxymannojirimycin (DMJ), 1,5-dideoxy-1,5-imino-D-mannitol], in series [3], the “effect on HIV / virion infectivity (in words)” value is “absence of effect”. Also, the “mannosidase I inhibition (in words)” value in series [9] is “mannosidase I inhibitor”.

As to `OC[C@H]1NC[C@H](O)[C@@H](O)[C@@H]1O` [deoxynojirimycin (DNJ), deoxynojirimycin], in series [3], the “effect on HIV / virion infectivity (in words)” value is on record as “positive effect”. Moreover, the “glycosidase inhibition (in words)” value in series [10] was “glycosidase inhibitor”.

On to `OC[C@H]1NCC[C@@H](O)[C@@H]1O` [fagomine], for which the “inhibition of HIV / cytopathic effect (in words)” value in series [3] is on record as “no HIV inhibition was observed”. In [11], the “α-glycosidase inhibitory activity (in words)” value is “α-glycosidase inhibitory activity”.
